Laboratory results from the NIST ThermoML archive (doi:10.1016/j.tca.2015.08.013).
± gives the expanded uncertainty stated by the source.

Details: for surface tension liquid-gas: Drop volume; for mass density / kinematic viscosity / speed of sound / vapor or sublimation pressure: Liquid; for mass density: Vibrating tube method; for kinematic viscosity / speed of sound: 101.33 kPa; for kinematic viscosity: Capillary tube (Ostwald / Ubbelohde) method; for speed of sound: Sing-around technique in a fixed-path interferometer; for vapor or sublimation pressure: Ebulliometric method (Recirculating still)

Cc1ccco1 [2-methylfuran]
Details | kinematic viscosity [m2/s] | speed of sound [m/s] | surface tension liquid-gas [mN/m] | vapor or sublimation pressure [kPa]
278.15 K | 5.39e-07 ± 1.2e-08 | 1254.8 ± 1.5 | 27.02 ± 0.24 | –
280.65 K | 5.23e-07 ± 1.1e-08 | 1243.4 ± 1.5 | 26.6 ± 0.23 | –
283.15 K | 5.08e-07 ± 1.1e-08 | 1231.9 ± 1.5 | 26.29 ± 0.23 | –
285.37 K | – | – | – | 12.57 ± 0.2
285.65 K | 4.93e-07 ± 1.1e-08 | 1220.4 ± 1.5 | 26 ± 0.23 | –
286.86 K | – | – | – | 13.65 ± 0.2
288.15 K | 4.79e-07 ± 1e-08 | 1209 ± 1.5 | 25.69 ± 0.23 | –
289.1 K | – | – | – | 15.22 ± 0.2
290.65 K | 4.66e-07 ± 1e-08 | 1197.5 ± 1.5 | 25.26 ± 0.23 | –
291.81 K | – | – | – | 17.26 ± 0.2
293.15 K | 4.55e-07 ± 9.8e-09 | 1186 ± 1.5 | 24.98 ± 0.23 | –
293.4 K | – | – | – | 18.52 ± 0.2
294.3 K | – | – | – | 19.48 ± 0.2
295.65 K | 4.46e-07 ± 9.6e-09 | 1174.6 ± 1.5 | 24.66 ± 0.22 | –
295.86 K | – | – | – | 20.63 ± 0.2
297.45 K | – | – | – | 22.34 ± 0.2
298.15 K | 4.38e-07 ± 9.5e-09 | 1163.2 ± 1.5 | 24.34 ± 0.22 | –
299.76 K | – | – | – | 24.68 ± 0.2
300.65 K | 4.29e-07 ± 9.3e-09 | 1151.9 ± 1.5 | 24.03 ± 0.22 | –
300.83 K | – | – | – | 25.8 ± 0.2
303.15 K | 4.2e-07 ± 9.1e-09 | 1140.6 ± 1.5 | 23.71 ± 0.22 | –
303.45 K | – | – | – | 28.68 ± 0.2
305.13 K | – | – | – | 30.8 ± 0.2
305.65 K | 4.11e-07 ± 8.9e-09 | 1129.3 ± 1.5 | 23.41 ± 0.22 | –
307.42 K | – | – | – | 33.94 ± 0.2
308.15 K | 4.01e-07 ± 8.7e-09 | 1118.1 ± 1.5 | 23.06 ± 0.21 | –

Details | mass density [kg/m3]
278.15 K, 99 kPa | 934.034 ± 0.23
280.65 K, 99 kPa | 931.092 ± 0.23
283.15 K, 99 kPa | 928.13 ± 0.23
283.15 K, 100 kPa | 928.13 ± 0.29
283.15 K, 2500 kPa | 930.56 ± 0.29
283.15 K, 5000 kPa | 932.75 ± 0.3
283.15 K, 7500 kPa | 935.07 ± 0.3
283.15 K, 10000 kPa | 937.27 ± 0.31
283.15 K, 20000 kPa | 945.74 ± 0.32
283.15 K, 30000 kPa | 953.37 ± 0.33
283.15 K, 40000 kPa | 960.5 ± 0.33
283.15 K, 50000 kPa | 967.21 ± 0.33
283.15 K, 60000 kPa | 973.54 ± 0.33
285.65 K, 99 kPa | 925.161 ± 0.23
288.15 K, 99 kPa | 922.181 ± 0.23
288.15 K, 100 kPa | 922.18 ± 0.29
288.15 K, 2500 kPa | 924.54 ± 0.3
288.15 K, 5000 kPa | 926.97 ± 0.3
288.15 K, 7500 kPa | 929.48 ± 0.3
288.15 K, 10000 kPa | 931.62 ± 0.31
288.15 K, 20000 kPa | 940.4 ± 0.32
288.15 K, 30000 kPa | 948.28 ± 0.33
288.15 K, 40000 kPa | 955.59 ± 0.34
288.15 K, 50000 kPa | 962.35 ± 0.34
288.15 K, 60000 kPa | 968.84 ± 0.34
290.65 K, 99 kPa | 919.197 ± 0.23
293.15 K, 99 kPa | 916.198 ± 0.23
293.15 K, 100 kPa | 916.2 ± 0.29
293.15 K, 2500 kPa | 918.63 ± 0.3
293.15 K, 5000 kPa | 921.3 ± 0.3
293.15 K, 7500 kPa | 923.72 ± 0.31
293.15 K, 10000 kPa | 926.09 ± 0.31
293.15 K, 20000 kPa | 934.94 ± 0.32
293.15 K, 30000 kPa | 943.1 ± 0.34
293.15 K, 40000 kPa | 950.59 ± 0.34
293.15 K, 50000 kPa | 957.61 ± 0.35
293.15 K, 60000 kPa | 964.27 ± 0.35
295.65 K, 99 kPa | 913.193 ± 0.23
298.15 K, 99 kPa | 910.179 ± 0.23
298.15 K, 100 kPa | 910.18 ± 0.29
298.15 K, 2500 kPa | 912.71 ± 0.3
298.15 K, 5000 kPa | 915.3 ± 0.3
298.15 K, 7500 kPa | 918 ± 0.31
298.15 K, 10000 kPa | 920.32 ± 0.31
298.15 K, 20000 kPa | 929.72 ± 0.33
298.15 K, 30000 kPa | 937.91 ± 0.34
298.15 K, 40000 kPa | 945.67 ± 0.35
298.15 K, 50000 kPa | 952.89 ± 0.35
298.15 K, 60000 kPa | 959.58 ± 0.36
300.65 K, 99 kPa | 907.155 ± 0.23
303.15 K, 99 kPa | 904.121 ± 0.23
303.15 K, 100 kPa | 904.12 ± 0.29
303.15 K, 2500 kPa | 906.73 ± 0.3
303.15 K, 5000 kPa | 909.46 ± 0.3
303.15 K, 7500 kPa | 912.07 ± 0.31
303.15 K, 10000 kPa | 914.76 ± 0.31
303.15 K, 20000 kPa | 924.23 ± 0.33
303.15 K, 30000 kPa | 932.75 ± 0.35
303.15 K, 40000 kPa | 940.68 ± 0.36
303.15 K, 50000 kPa | 948.03 ± 0.36
303.15 K, 60000 kPa | 955.1 ± 0.36
305.65 K, 99 kPa | 901.077 ± 0.23
308.15 K, 99 kPa | 898.02 ± 0.23
308.15 K, 100 kPa | 898.02 ± 0.29
308.15 K, 2500 kPa | 900.91 ± 0.3
308.15 K, 5000 kPa | 903.72 ± 0.3
308.15 K, 7500 kPa | 906.43 ± 0.31
308.15 K, 10000 kPa | 909.05 ± 0.31
308.15 K, 20000 kPa | 918.85 ± 0.33
308.15 K, 30000 kPa | 927.65 ± 0.35
308.15 K, 40000 kPa | 935.68 ± 0.36
308.15 K, 50000 kPa | 943.2 ± 0.37
308.15 K, 60000 kPa | 950.35 ± 0.37
